Earlier results as cited in patent US10149395B2, “Water-based organic solderability preservative, and electronic board and surface treatment method using the same” (TAMURA CORPORATION, priority 2016, dated 2018).

Conditions: at 20 degrees C.

Structure (SMILES)	solubility to water
COC(C)COC(C)COC(C)CO (stereo not shown) [Organic solvent A, tripropylene glycol monomethyl ether]	miscible in all proportions
COCC(C)O (stereo not shown) [Organic solvent C, propylene glycol monomethyl ether]	miscible in all proportions
COCCOCCOCCOCCOC [Organic solvent D, tetraethylene glycol dimethyl ether]	miscible in all proportions
OCC1CCCO1 (stereo not shown) [Organic solvent E, tetrahydrofurfuryl alcohol]	miscible in all proportions
COCC(C)OC(C)=O (stereo not shown) [Organic solvent F, propylene glycol monomethyl ether acetate]	18.5 g/100 g
OCCOc1ccccc1 [Organic solvent G, phenyl glycol]	2.7 g/100 g
CCCCOCC(C)OCC(C)OCC(C)O (stereo not shown) [Organic solvent H, butylpropylene triglycol]	0.4 g/100 g
CCCCOCCOCCOCCCC [Organic solvent I, diethylene glycol dibutylether]	0.3 g/100 g
CCO [Organic solvent J, ethyl alcohol]	miscible in all proportions
CC(C)O [Organic solvent K, isopropyl alcohol]	miscible in all proportions
